Test results published in paper PMC3956373, “Suppression of type 1 pilus assembly in uropathogenic Escherichia coli by chemical inhibition of subunit polymerization” (Journal of Antimicrobial Chemotherapy, 2013).

Target: T1, FimH (Escherichia coli, UniProt P08191)
T1 construct: with FimC (C-terminal His tag); FimG Nte peptide in the assay
Assay: SDS-PAGE donor strand exchange assay with purified FimChis:FimH ([…]) and FimG Nte peptide ([…]), concentration-response
Assay type: biochemical

T1 sequence (P08191 22-300): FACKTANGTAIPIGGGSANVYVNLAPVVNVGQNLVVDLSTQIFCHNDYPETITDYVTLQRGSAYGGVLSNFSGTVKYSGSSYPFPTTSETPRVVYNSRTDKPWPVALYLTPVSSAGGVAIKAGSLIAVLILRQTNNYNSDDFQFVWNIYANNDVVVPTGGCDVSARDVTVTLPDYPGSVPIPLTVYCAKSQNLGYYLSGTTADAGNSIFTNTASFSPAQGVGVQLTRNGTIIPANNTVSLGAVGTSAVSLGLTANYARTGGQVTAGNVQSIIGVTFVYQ
T1 sequence (P31697 37-241, further chain): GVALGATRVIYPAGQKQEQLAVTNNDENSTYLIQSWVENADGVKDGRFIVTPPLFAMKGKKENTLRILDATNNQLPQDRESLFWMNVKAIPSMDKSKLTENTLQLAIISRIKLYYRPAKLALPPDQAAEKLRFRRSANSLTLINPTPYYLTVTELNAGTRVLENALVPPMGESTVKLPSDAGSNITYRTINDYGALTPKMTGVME
T1 sequence (P08190 24-167, further chain): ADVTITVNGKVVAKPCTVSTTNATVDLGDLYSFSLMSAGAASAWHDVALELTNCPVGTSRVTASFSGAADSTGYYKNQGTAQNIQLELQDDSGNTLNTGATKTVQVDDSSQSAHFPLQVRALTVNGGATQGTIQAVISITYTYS

For `O=C(CSc1nnc(-c2ccc(S(=O)(=O)N3CCCC3)cc2)o1)Nc1ccc(Cl)cc1` [AL1, N-(4-chloro-phenyl)-2-{5-[4-(pyrrolidine-1-sulfonyl)-phenyl]-[1,3,4]oxadiazol-2-ylsulfanyl}-acetamide], the IC50 was 286 µM.
